Reference: patent US20250026741A1, “INHIBITORS OF THE ONCOGENIC SHP2 PHOSPHATASE AND USES THEREOF” (Sanford Burnham Prebys Medical Discovery Institute, priority 2021, published 2025)

How the values were obtained:
[1] = target: SHP2cat (Homo sapiens (Human), UniProt Q06124); experiment: Jump dilution inhibition assay; type: biochemical; details: 10× preincubation 10 min, 10× jump-dilution
Method: Finally, we performed a jump-dilution experiment to test for irreversible inhibition of SHP2. #01 was preincubated for 10 min with SHP2cat at 10× inhibitor and protein concentrations, compared to a regular dose-response experiment, followed by a 10×jump-dilution, incubation for an additional 10 min, and addition of the DiFMUP substrate.
#01 was tested for reversibility of inhibition in a jump-dilution experiment using SHP2cat. A regular dose-response experiment (no jump-dilution) was performed in parallel. Working solutions of #01 in DMSO included 10, 3, 1, 0.3, 0.1, 0.03, 0.01, 0 mM for the jump-dilution experiment, and 1, 0.3, 0.1, 0.03, 0.01, 0.003, 0.001, 0 mM for the regular dose-response experiment. […] The enzyme reaction was started by the addition of 5 μL of DiFMUP working solution (100 μM in 50 mM Bis-Tris pH 6.0, 50 mMNaCl, 0.5 mM EDTA, and 0.01% Tween® 20), and fluorescence intensity was measured in kinetic mode (every minute for 10 min) using a Tecan Spark® Multimode Microplate Reader as described above. […] The initial rates were determined from the linear progression curves of the SHP2cat reaction. […] IC50 values were calculated from the corrected initial rates by nonlinear regression using the program GraphPad Prism (GraphPad Software, Inc., San Diego, CA) version 9.

[2] = tested on: p-ERK1/2 in U-937 AML cells (SHP2 G60R); experiment: Phospho-ERK1/2 immunoblot analysis, U-937; type: cell-based; details: U-937, 24 h; #02 1, 3, 10, 30 μM; RMC-4550 1 μM
Description: Oncogenic gain-of-function mutations in SHP2 drive leukemogenesis in a significant number of leukemia patients. However, due to their unique mechanism of action, the existing SHP2 allosteric inhibitors lack activity against the most common SHP2 oncogenic variants. Thus, we tested whether #02 can inhibit the growth of leukemia cells expressing oncogenic SHP2 variants. […] Using the U-937 AML cell line, which harbors a G60R oncogenic mutation in SHP2, we treated cells with either #02 or RMC-4550 at various concentrations, ranging from 0.123 to 30 μM (FIG. 4A). […] We also assessed the effects of #02 and RMC-4550 on ERK1/2 activation in the SHP2 mutant U-937 cell line. Similar to the immunoblot experiments described above, U-937 AML cells were treated with either vehicle control (DMSO), #02 (1, 3, 10, or 30 μM), or with RMC-4550 (1 μM) for 24 h and processed for p-ERK1/2 immunoblot analysis (FIG. 4B).
Total protein extracts were prepared in modified RIPA lysis buffer (25 mM Tris-HCl, pH 7.4, 10% glycerol, 0.2% Triton™ X-100, 150 mM NaCl, 2 mM Na3VO4, 1 mM EDTA) containing a protease inhibitor cocktail (Roche Applied Science, Indianapolis, IN). […] Densitometric quantitation of immunoblots was performed using Image Studio Lite Software. Changes of phosphorylated ERK1/2 to total ERK1/2 rations are expressed as percentage of the vehicle-treated controls. […]

[3] = tested on: patient-derived AML cells; experiment: Viability of AML patient-derived cells; type: cell-based, human; details: 10 μM, two patient samples, 2 d, 4 d, or 6 d
Description: Patient-derived AML cells were obtained from Carol Burian and Dr. James Mason (Scripps MD Anderson, La Jolla, CA) under approved IRB protocol 13-6180. Peripheral blood mononuclear cells (PBMCs) were isolated by traditional Ficoll-Paque™ PLUS (17-1440-02, GE Healthcare) centrifugation according to the manufacturer's instructions, and red blood cells were lysed using RBC Lysis Buffer (Alfa Aesar, cat. #J62990). Final PBMCs were resuspended in Bambanker serum-free freezing medium (Wako Pure Chemical Industries, Ltd.) and stored frozen before cell viability was assessed as described below.
Viability of AML, esophageal carcinoma, and TF-1 cells was assessed using the ATP-depletion assay CellTiter-Glo® (Promega). Cells were harvested at 1×10^6/mL to 2×10^6 cells/mL with cell numbers determined by trypan blue using the Countess Cell counter (Thermo Scientific) and resuspended in culture media. 3K cells (in […]) were seeded in a 384-well format white, clear bottom microplate (#781098, Greiner) spotted with test compound or vehicle control (DMSO) using an Echo 555 Liquid Handler. […] Luminescence was read on a Tecan Spark® Multimode Microplate Reader and data analyzed using Graph Pad Prism software.

SHP2cat, sequence (Q06124 248-527): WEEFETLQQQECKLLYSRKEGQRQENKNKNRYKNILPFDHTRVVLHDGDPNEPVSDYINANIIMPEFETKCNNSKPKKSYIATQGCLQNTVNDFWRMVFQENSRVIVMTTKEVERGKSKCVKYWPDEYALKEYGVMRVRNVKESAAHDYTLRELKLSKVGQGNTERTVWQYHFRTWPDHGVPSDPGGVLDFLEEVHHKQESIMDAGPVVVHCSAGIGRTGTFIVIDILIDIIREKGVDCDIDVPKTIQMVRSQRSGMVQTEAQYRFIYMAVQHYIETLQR

| Structure (SMILES) | reversibility: jump-dilution vs regular dose-response IC50 curves [1] | ERK1/2 activation (p-ERK1/2 levels) [2] | effect on growth of patient-derived AML samples [3] |
| --- | --- | --- | --- |
| Nc1ccc(NC(=O)c2cc(-c3ccc(/C=C4\Sc5ccccc5C4=O)o3)ccc2O)cc1 [#01, (Z)—N-(4-Aminophenyl)-2-hydroxy-5-(5-((3-oxobenzo[b]thiophen-2(3H)-ylidene)methyl)furan-2-yl)benzamide] | IC50 curves were practically identical |  |  |
| O=C(Nc1ccccc1)c1cc(-c2ccc(/C=C3\Sc4ccccc4C3=O)o2)ccc1O [#02, (Z)-2-hydroxy-5-(5-((3-oxobenzo[b]thiophen-2(3H)-ylidene)methyl)furan-2-yl)-N-phenylbenzamide] |  | dose-dependently inhibited ERK1/2 activation | inhibited the growth of both AML patient samples |
